According to patent publication US20090186918A1, “Triazole Compounds as Lipoxygenase Inhibitors” (priority 2005, published 2009):
pIC50: −log10 of the molar value.

Each compound was assayed against T1, purified human 15-lipoxygenase (Homo sapiens, UniProt P16050) (assay: 15-lipoxygenase inhibition assay (arachidonic acid oxidation, 15-HPETE/15-HETE measured by reverse phase HPLC)). Settings: not given.
T1 sequence (P16050 1-662): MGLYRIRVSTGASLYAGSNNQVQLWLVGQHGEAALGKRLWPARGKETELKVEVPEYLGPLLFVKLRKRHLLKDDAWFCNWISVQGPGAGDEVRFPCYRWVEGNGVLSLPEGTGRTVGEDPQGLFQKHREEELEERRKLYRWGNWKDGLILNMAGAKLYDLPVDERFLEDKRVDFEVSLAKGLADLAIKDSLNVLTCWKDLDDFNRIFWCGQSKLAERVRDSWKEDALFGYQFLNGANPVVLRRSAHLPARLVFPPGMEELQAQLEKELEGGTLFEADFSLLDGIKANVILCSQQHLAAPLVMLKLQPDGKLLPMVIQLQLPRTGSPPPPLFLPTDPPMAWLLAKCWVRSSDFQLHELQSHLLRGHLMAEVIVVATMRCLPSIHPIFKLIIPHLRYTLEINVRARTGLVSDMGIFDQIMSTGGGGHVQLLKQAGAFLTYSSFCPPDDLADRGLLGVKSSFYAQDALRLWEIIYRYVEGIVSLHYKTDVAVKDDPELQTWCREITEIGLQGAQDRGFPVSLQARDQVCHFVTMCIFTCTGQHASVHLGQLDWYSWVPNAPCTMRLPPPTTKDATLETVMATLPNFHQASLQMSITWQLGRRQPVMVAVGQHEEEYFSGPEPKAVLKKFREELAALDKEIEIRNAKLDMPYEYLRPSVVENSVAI
Type: biochemical
Method: The assay employed takes advantage of the ability of lipoxygenases to oxidize polyunsaturated fatty acids, containing a 1,4-cis-pentadiene configuration, to their corresponding hydroperoxy or hydroxyl derivatives. In this particular assay, the lipoxygenase was a purified human 15-lipoxygenase and the fatty acid was arachidonic acid. The assay is performed at room temperature (20-22° C.) and the following are added to each well in a 96-well microtiter plate:
a) 35 μL phosphate buffered saline (PBS) (pH 7.4); b) inhibitor (i.e. compound) or vehicle (0.5 μl DMSO); c) 10 μL of a 10× concentrated solution of 15-lipoxygenase in PBS. The plates are incubated for 5 minutes at room temperature;
d) 5 μl of 0.125 mM arachidonic acid in PBS. The plate is then incubated for 10 minutes at room temperature;
e) the enzymatic reaction is terminated by the addition of 100 μl methanol; and f) the amount of 15-hydroperoxy-eicosatetraenoic acid or 15-hydroxy-eicosatetraenoic acid is measured by reverse phase HPLC.

SMILES | pIC50
O=C(Nc1cnc2ccccc2c1)c1cn[nH]n1 [Example 1, 1,2,3-Triazole-4-carboxylic acid quinolin-3-ylamide] | 5.85

Same assay, conditions: purified human 15-lipoxygenase, arachidonic acid substrate, room temperature; read-out: IC50

SMILES | pIC50
O=C(Nc1cc(Cl)c(Cl)cc1Cl)c1c[nH]nn1 [Example 12, 1,2,3-Triazole-4-carboxylic acid (2,4,5-trichlorophenyl)amide] | 6.12
Cc1cc(NC(=O)c2c[nH]nn2)ccc1Cl [Example 18, 1,2,3-Triazole-4-carboxylic acid (4-chloro-3-methylphenyl)amide] | 6.02
O=C(Nc1ccc(Br)cn1)c1c[nH]nn1 [Example 35, 1,2,3-Triazole-4-carboxylic acid (5-bromopyridin-2-yl)amide] | 6.09
O=C(Nc1ccc(Cl)c(Cl)c1)c1c[nH]nn1 [Example 9, 1,2,3-Triazole-4-carboxylic acid (3,4-dichlorophenyl)amide] | 5.80
O=C(Nc1ccc(Cl)cn1)c1c[nH]nn1 [Example 7, 1,2,3-Triazole-4-carboxylic acid (5-chloropyridin-2-yl)amide] | 5.74
O=C(Nc1ccc(Cl)c(Cl)c1Cl)c1c[nH]nn1 [Example 6, 1,2,3-Triazole-4-carboxylic acid (2,3,4-trichlorophenyl)amide] | 6.48

Next, values leading:

pIC50 | SMILES
5.94 | O=C(Nc1ccc(C(F)(F)F)cc1C(F)(F)F)c1c[nH]nn1 [Example 36, 1,2,3-Triazole-4-carboxylic acid [2,4-bis(trifluoromethyl)phenyl]amide]
5.39 | O=C(Nc1cc(Cl)cc(Cl)c1)c1c[nH]nn1 [Example 82, 1,2,3-Triazole-4-carboxylic acid (3,5-dichlorophenyl)amide]
5.42 | O=C(Nc1ccc(C(F)(F)F)cc1[N+](=O)[O-])c1c[nH]nn1 [Example 73, 1,2,3-Triazole-4-carboxylic acid 2-nitro-4-(trifluoromethyl)phenylamide]
6.28 | O=C(Nc1ccc(Cl)cc1F)c1c[nH]nn1 [Example 76, 1,2,3-Triazole-4-carboxylic acid 4-chloro-2-fluorophenylamide]
6.60 | O=C(Nc1ccc(Cl)cc1C(F)(F)F)c1c[nH]nn1 [Example 75, 1,2,3-Triazole-4-carboxylic acid 4-chloro-2-(trifluoromethyl)phenylamide]
5.03 | Cc1ccc(NC(=O)c2c[nH]nn2)cc1F [Example 91, 1,2,3-Triazole-4-carboxylic acid (3-fluoro-4-methylphenyl)amide]
